# Entries after “also recorded” stand apart in the source; their conditions may differ.
# Tests used:
# [1] = test system: PGC-1α/β KO myotubes; assay: Gene expression (qPCR) and HIF-1α immunoblot in PGC-1α/β KO myotubes; format: cell-based, mice; set-up: expression of mitochondrially-encoded ETC genes (ND1, CYTB, COX1, ATP6): dose or concentration left out as unconfirmed; details: primary PGC-1α/β KO myotubes incubated with NMN (12 h)
# Method: Primary myoblasts cells were isolated from WT, SIRT1 KO (Price et al., 2012) and PGC-1α/β KO (Zechner et al., 2010) mice as previously described (Price et al., 2012). WT and PGC-1α/β KO primary myoblasts were plated and allowed to differentiate into myotubes by replacing the media with low glucose DMEM supplemented with 2% horse serum (Sigma-Aldrich) for 4 days. After the differentiation the cells were infected with empty vector or flag-SIRT1 adenovirus as described before (Gerhart-Hines et al., 2007). Media was replaced with fresh DMEM supplemented with 2% horse serum (Sigma-Aldrich) for an additional 48 hr and, after that the cells were harvested for the different assays as described. To investigate the role of HIF-1α in genome asynchrony, PGC-1α/β KO primary myotubes were treated for 12 hours with 1 mM DMOG (Sigma) or 10 μM DFO (Sigma), 24 h after infection with empty vector of flag-SIRT1 adenovirus or after 12 h treatment with […] NMN (Sigma).
# (§1) RNA from skeletal muscle tissue and C2C12 cells were extracted with RNeasy mini kit (Qiagen) according to the instructions and quantified using the NanoDrop 1000 spectrophotometer (Thermo Scientific). cDNA was synthesized with the iSCRIP cDNA synthesis kit (BioRad) using 600 ng of RNA. Quantitative RT-PCR reactions were performed using 1 μM of primers and LightCycler® 480 SYBR Green Master (Roche) on an LightCycler® 480 detection system (Roche). Calculations were performed by a comparative method (2-ΔCT) using 18S as an internal control. For mtDNA analysis, total DNA was extracted with DNeasy blood and tissue kit (Qiagen). mtDNA was amplified using primers specific for the mitochondrial cytochrome c oxidase subunit 2 (COX2) gene and normalized to genomic DNA by amplification of the ribosomal protein s18 (rps18) nuclear gene. Primers were designed using the IDT software (IDT) and the primer sequences can be found in Table 1.
# (§2) Protein extracts from tissue or C2C12 cells were obtained by lysis in ice-cold lysis buffer (150 mM NaCl, 10 mM Tris HCl (pH 7.4), 1 mM EDTA, 1 mM EGTA, 1% Triton X-100, 0.5% NP-40) supplemented with a cocktail of protease and phosphatase inhibitors (Roche). Protein content was determined by the Bradford protein assay (Biorad), and 50 μg proteins were run on SDS-PAGE under reducing conditions. The separated proteins were then electrophoretically transferred to a polyvinylidene difluoride membrane (Perkin-Elmer). […] The immunostaining was detected using horseradish peroxidase-conjugated anti-rabbit or anti-mouse immunoglobulin for 1 h at room temperature.
# [2] = test system: AKT and IRS-1; assay: Insulin signaling (phosphorylation of AKT and IRS-1) in skeletal muscle; format: in vivo; details: soleus of old mice treated with NMN
# Description: (§3) C57BL/6J mice of 6, 22, or 30 months of age were obtained from the National Institutes of Aging mouse aging colony. Additionally 22 months old caloric restricted mice were also obtained from the National Institutes of Aging mouse aging colony. EGLN1 KO, SIRT1 KO and SIRT1 OE mice were generated as previously described (Minamishima et al., 2008; Price et al., 2012). Mice were acclimated for at least one-week prior to sacrifice. 3, 6, 22 and 24-month-old mice were given interperitoneal (IP) injections of 500 mg NMN/kg body weight per day or the equivalent volume of PBS for 7 consecutive days at 5:00 pm and 7:00 am on day 8 and sacrificed 4 hr after last injection.
# as §2
# [3] = test system: mitochondrial-encoded genes (ND1, Cytb, COX1 and ATP6); assay: qPCR of mitochondrial-encoded genes in gastrocnemius of NMN-treated mice; format: in vivo
# Description: as §3
# Whole body adult-inducible Egln1 knockout mice (Minamishima et al, 2007) were treated with IP injection of tamoxifen for 3 days after which they were allowed to rest. The mice were given interperitoneal (IP) injections of 500 mg NMN/kg body weight per day or the equivalent volume of PBS for 7 consecutive days at 5:00 pm and 7:00 am on day 8 and sacrificed 4 hr after last injection. All animal studies followed the guidelines of and were approved by the Harvard Institutional Animal Care and Use Committee.
# as §1, with “Primers were designed using the IDT software (IDT) and the primer sequences can be found in Table 1.” left out
# [4] = test system: HIF-1α; assay: Immunoblot for HIF-1α in gastrocnemius of NMN-treated mice; format: in vivo
# Method: (§4) C57BL/6J mice of 3, 6, 22, 24, or 30 months of age were obtained from the National Institutes of Aging mouse aging colony. Mice were acclimated for at least one-week prior to sacrifice. 3, and 24-month-old mice were given interperitoneal (IP) injections of 500 mg NMN/kg body weight per day or the equivalent volume of PBS for 7 consecutive days at 5:00 pm and 7:00 am on day 8 and sacrificed 4 hr after last injection. All animal studies followed the guidelines of and were approved by the Harvard Institutional Animal Care and Use Committee
# C57BL/6J mice of 6, 22, or 30 months of age were obtained from the National Institutes of Aging mouse aging colony. Additionally 22 months old caloric restricted mice were also obtained from the National Institutes of Aging mouse aging colony. […]
# as §2, with “conditions.” for “conditions. The separated proteins were then electrophoretically transferred to a polyvinylidene difluoride membrane (Perkin-Elmer).”, “temperature. […]” for “temperature.”
# [5] = test system: NAD+ levels; assay: NAD+ measurement in skeletal muscle of NMN-treated mice; format: in vivo, C57BL/6J mice; details: for levels of cellular NAD+: young and old
# Method: as §4
# NAD^+ from C2C12 cells and skeletal muscle was quantified with a commercially available kit (BioVision) according to the manufacturer's instructions and as described before (Gomes et al., Biochim. Biophys. Acta. 1822:185-195 (2012)).
# as §3
# NAD^+ from skeletal muscle was quantified with a commercially available kit (BioVision) according to the manufacturer's instructions and as described before (Gomes et al., 2012).
# C57BL/6J mice of 3, 6, 22, or 24 months of age were obtained from the National Institutes of Aging mouse aging colony. Mice were acclimated for at least one-week prior to sacrifice. […]
# NAD^+ from C2C12 cells and skeletal muscle was quantified with a commercially available kit (BioVision) according to the manufacturer's instructions and as described before (Gomes et al., 2012).
smiles,measurement,setting,value
"NC(=O)c1ccc[n+]([C@@H]2O[C@H](COP(=O)([O-])O)[C@@H](O)[C@H]2O)c1 [NMN, nicotinamide mononucleotide]","expression of mitochondrially-encoded ETC genes (ND1, CYTB, COX1, ATP6)",[1],induced expression of mitochondrially-encoded ETC genes
same,insulin signaling (phosphorylation of AKT and IRS-1),[2],restore insulin signaling
same,mitochondrial-encoded genes in the skeletal muscle,"[3]; Egln1 KO mice treated with NMN, compared to WT controls",did not restore
same,ability of NMN to induce mitochondrially-encoded genes,"[3]; inducible SIRT1 KO mice, skeletal muscle",lost in animals lacking SIRT1
same,expression of mitochondrial-encoded genes,"[3]; old (22-month-old) mice, gastrocnemius, NMN one week",restored
same,HIF-1α protein,"[4]; 22-month-old mice, gastrocnemius, NMN IP 500 mg/kg/day, 7 days, 500 mg/kg/day",reversed the age-induced decline in VHL and consequent accumulation of HIF-1α; also recorded: destabilizes HIF-1alpha in the skeletal muscle of old animals
same,HIF-1α in muscle,"[4]; 24-month-old mice, NMN 500 mg/kg IP, one week",reversed the age-induced increase in HIF-1α in muscle
same,levels of cellular NAD+,"[5]; 3- and 24-month-old C57BL/6J mice, NMN 500 mg/kg IP, one week, treated vs untreated",approximately 2 fold
same,levels of cellular NAD+,"[5]; 6- and 22-month-old C57BL/6J mice, NMN one week",2 fold
same,NAD+ levels in the skeletal muscle of old mice,"[5]; gastrocnemius, 3- and 24-month-old C57BL6J mice, NMN IP 500 mg/kg/day, 7 days, colorimetric NAD+ assay",increases NAD+ levels

# Source: US20150265642A1, “NAD BIOSYNTHESIS AND PRECURSORS IN THE PREVENTION AND TREATMENT OF INFLAMMATION” (PRESIDENT AND FELLOWS OF HARVARD COLLEGE, priority 2013, published 2015)
